The target of this test is T1, KRAS G12C 1-169, his-tagged protein, GDP-loaded (Homo sapiens, UniProt P01116, G12C).
T1 construct: KRAS G12C 1-169, his-tagged protein, GDP-loaded; His tag
The test is described as follows: Biochemical assay: covalent modification of KRAS G12C, analysed by mass spectrometry (RapidFire/TOF or Q-Exactive). Further: time not given here. It is filed as binding. Particulars: Modification activity, modification percentage from MS peak intensities. Summed up:
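GDP-loaded His-tagged KRAS G12C 1-169 (2 μM or 0.5 μM in 20 mM Hepes, 150 mM NaCl, 1 mM MgCl2) reacted with compound at 32 μM or 8 μM final (2% DMSO) for a set time, then quenched with formic acid. Percent covalent modification from deconvoluted intact-protein MS peak intensities (RapidFire/TOF or LC-Q Exactive).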
On to `C=CC(=O)N1CC2(CCN(c3ncnc(-c4c(C)ccc5cn[nH]c45)c3C#N)C2)C1` [Compound I-227, 4-(2-acryloyl-2,6-diazaspiro[3.4]octan-6-yl)-6-(6-methyl-1H-indazol-7-yl)pyrimidine-5-carbonitrile], for which the Binding % entry is “+ (+ indicates binding activity greater than 0% and up to 50%)”. The result for `C=CC(=O)N1CC2(CCN(c3nc(OC4CCOCC4)nc(-c4c(C)ccc5[nH]ncc45)c3C#N)C2)C1` [Compound I-25, 4-(2-acryloyl-2,6-diazaspiro[3.4]octan-6-yl)-6-(5-methyl-1H-indazol-4-yl)-2-((tetrahydro-2H-pyran-4-yl)oxy)pyrimidine-5-carbonitrile] reads “+ (+ indicates binding activity greater than 0% and up to 50%)”; that for `C=CC(=O)N1CC2(CCN(c3ncnc(-c4c(C)ccc5[nH]ncc45)n3)C2)C1` [Compound I-280, 1-(6-(4-(5-methyl-1H-indazol-4-yl)-1,3,5-triazin-2-yl)-2,6-diazaspiro[3.4]octan-2-yl)prop-2-en-1-one], “+ (+ indicates binding activity greater than 0% and up to 50%)”. As for `Cc1ccc2[nH]ncc2c1-c1nc(OC[C@@H]2CCCN2C)nc(N2CCC3(CN(C(=O)/C=C/CN(C)C)C3)C2)c1C#N` [Compound I-204, 4-(2-((E)-4-(dimethylamino)but-2-enoyl)-2,6-diazaspiro[3.4]octan-6-yl)-6-(5-methyl-1H-indazol-4-yl)-2-(((S)-1-methylpyrrolidin-2-yl)methoxy)pyrimidine-5-carbonitrile], the Binding % result was “+ (+ indicates binding activity greater than 0% and up to 50%)”. The result for `C=CC(=O)N1CC2(CCN(c3nc(OC[C@@H]4CCCN4C)nc(-c4ccccc4-c4cn[nH]c4)c3C#N)C2)C1` [Compound I-107, (S)-4-(2-(1H-pyrazol-4-yl)phenyl)-6-(2-acryloyl-2,6-diazaspiro[3.4]octan-6-yl)-2-((1-methylpyrrolidin-2-yl)methoxy)pyrimidine-5-carbonitrile] reads “+ (+ indicates binding activity greater than 0% and up to 50%)”; that for `C=CC(=O)N1CC2(CCN(c3nc(OCc4cc(F)cc(F)c4)nc(-c4c(C)ccc5[nH]ncc45)c3C#N)C2)C1` [Compound I-152], “++ (++ indicates binding activity from 50 to 85%)”.

For the compound `C=CC(=O)N1CC2(CCN(c3nc(-c4c(C)ccc5[nH]ncc45)ncc3C#N)C2)C1` [Compound I-141, 4-(2-acryloyl-2,6-diazaspiro[3.4]octan-6-yl)-2-(5-methyl-1H-indazol-4-yl)pyrimidine-5-carbonitrile], the Binding % result was “+ (+ indicates binding activity greater than 0% and up to 50%)”. Take `C=CC(=O)N1CC2(CCN(c3nc(OC[C@@H]4CCCN4C)nc(-c4c(C)ccc5[nH]ncc45)c3C#N)C2)C1` [Compound I-2, 4-(2-acryloyl-2,6-diazaspiro[3.4]octan-6-yl)-6-(5-methyl-1H-indazol-4-yl)-2-(((S)-1-methylpyrrolidin-2-yl)methoxy)pyrimidine-5-carbonitrile]: the Binding % result is listed as “+++ (+++ indicates binding activity greater than 85%)”. As for `C=CC(=O)N1CC2(CCN(c3ncnc(-c4c(C)ccc5[nH]ncc45)c3CC(F)(F)F)C2)C1` [Compound I-259, 1-(6-(6-(5-methyl-1H-indazol-4-yl)-5-(2,2,2-trifluoroethyl)pyrimi-din-4-yl)-2,6-diazaspiro[3.4]octan-2-yl)prop-2-en-1-one], the Binding % result is “+ (+ indicates binding activity greater than 0% and up to 50%)”. Under `C=CC(=O)N1CC2(CCN(c3nc(OCc4ccccn4)nc(-c4c(C)ccc5cn[nH]c45)c3C#N)C2)C1` [Compound I-93, 4-(2-acryloyl-2,6-diazaspiro[3.4]octan-6-yl)-6-(6-methyl-1H-indazol-7-yl)-2-(pyridin-2-ylmethoxy)pyrimidine-5-carbonitrile] stands “+++ (+++ indicates binding activity greater than 85%)”.

Source of the values: patent US12134620B2 (ARAXES PHARMA LLC, priority 2018, dated 2024).
